Values joined by “and” are separate entries in the source; they are usually repeats but may differ in a detail not shown here. Equal values may be shown once.
Tests used:
[1] = target: T1, human D1 receptor (Homo sapiens, UniProt P21728); experiment: cAMP response in HEK293 cells stably expressing the human D1 receptor; assay type: cell-based; settings: for EC50: hD1 HEK293
[2] = target: T2, rat D1 receptor (Rattus norvegicus, UniProt P18901); experiment: cAMP response in rD1 HEK293 cells; assay type: cell-based
T2 construct: expressed in transfected cells

[3] = target: T1, human D1 receptor; experiment: cAMP potentiation, transiently expressed human D1 receptor in HEK293 cells; assay type: cell-based; settings: Human D1, transient
[4] = target: dog D1 receptor (Canis lupus familiaris, UniProt A0A8I3RQT9); experiment: cAMP potentiation, transiently expressed dog D1 receptor in HEK293 cells; assay type: cell-based; settings: Dog D1, transient
Description: The human, rhesus monkey, dog, or mouse D1 receptor was cloned into the Jump-In vector system (Life Technologies, Austin, TX) and transiently transfected into HEK293 cells using Fugene HD (Promega, Madison, WI). After 2 days of growth in DMEM medium containing 10% FBS, 10 mM HEPES, and 100 µg/ml ampicillin at 37°C in 5% CO2, the cells were harvested with TrypLE Express (GIBCO), resuspended in FBS containing 8% DMSO, and stored in 1-ml aliquots (10 × 10^6 cells/ml) at −70°C. The cAMP accumulation was measured as described for hD1 except that 6000 to 10,000 cells per well were used and the EC20 concentration of dopamine used was 0.7 nM (final).

[5] = target: T3, rhesus monkey D1 receptor (Macaca mulatta, UniProt O77680); experiment: cAMP potentiation, transiently expressed rhesus monkey D1 receptor in HEK293 cells; assay type: cell-based; settings: Rhesus D1, transient
T3 construct: expressed in transfected cells; host or cells: HEK293, transient (Fugene HD)

[6] = target: T4, mouse D1 receptor (Mus musculus, UniProt Q61616); experiment: cAMP potentiation, transiently expressed mouse D1 receptor in HEK293 cells; assay type: cell-based
T4 construct: expressed in transfected cells; host or cells: HEK293, transient (Fugene HD)

[7] = target: T5, human D5 receptor (Homo sapiens, UniProt P21918); experiment: cAMP response in hD5 CHO cells; assay type: cell-based
T5 construct: host or cells: CHO
Description: A Chinese hamster ovary (CHO) cell line expressing the human D5 receptor was purchased from DiscoveRx (Fremont, CA) (product no. 92-1043). The hD5 assay was performed in the same way as the hD1 assay except that the EC20 concentration of dopamine was 2 nM.

[8] = target: D2 receptor (Homo sapiens, UniProt P14416); experiment: D2 cAMP assay (DiscoveRx); assay type: cell-based; settings: potentiator, agonist and antagonist mode, up to 10 µM
Description: (§1) The D2, β1, β2, β3, and 5HT6 cAMP assays were performed at DiscoveRx using the protocols described on their website (www.discoverx.com).

[9] = target: β1 receptor (Homo sapiens, UniProt P08588); experiment: β1 cAMP assay (DiscoveRx); assay type: cell-based; settings: potentiator, agonist and antagonist mode, up to 10 µM
Description: as §1

[10] = target: β2 receptor (Homo sapiens, UniProt P07550); experiment: β2 cAMP assay (DiscoveRx); assay type: cell-based; settings: potentiator, agonist and antagonist mode, up to 10 µM
Description: as §1

[11] = target: β3 receptor (Homo sapiens, UniProt P13945); experiment: β3 cAMP assay (DiscoveRx); assay type: cell-based; settings: potentiator, agonist and antagonist mode, up to 10 µM
Description: as §1

[12] = target: 5HT6 receptor (Homo sapiens, UniProt P50406); experiment: 5HT6 cAMP assay (DiscoveRx); assay type: cell-based; settings: potentiator, agonist and antagonist mode, up to 10 µM
Description: as §1

[13] = target: 5HT2B receptor (Homo sapiens, UniProt P41595); experiment: Standard Lilly selectivity panel, 5HT2B receptor
[14] = test system: 10 additional targets from the standard Lilly selectivity panel; experiment: Standard Lilly selectivity panel, additional targets
[15] = target: T1, human D1 receptor; experiment: 3H-SCH23390 binding to human D1 HEK293 cell membranes; settings: 1-100 nM DETQ
[16] = test system: wild-type C57Bl/6 mice; experiment: Locomotor activity (LMA) in wild-type C57Bl/6 mice; assay type: in vivo, mouse
[17] = test system: hD1 mice; experiment: Video-tracking of horizontal motion, rearing and grooming in hD1 mice; assay type: in vivo, mouse
Source text: The apparatus for the video-tracking assessment experiment included 12 custom-built video-tracking observation chambers and the HomeCageScan (CleverSys, Reston, VA) software system. The chambers, measuring (in inches) 8 width × 10 length × 8 height, consisted of two end walls, a back wall, a top, and a floor constructed of ¼-in. translucent white acrylic, and one side (front) constructed of clear acrylic. LED strip lighting was placed below the chamber for illumination. A color video camera (640 × 480, 30 frames per second) was placed in front of each chamber to record behavior from a side view. The chambers were located in large sound-attenuating chambers to reduce ambient room noise and isolate lighting. The cameras were connected in groups of four to a quad multiplexer (model NVQC-42N; Nuvico, Englewood, NJ), with each multiplexer connected to its own computer, which then recorded each session to an MPEG file.
At the end of the experiment the files were batch-analyzed by a computer running the CleverSys CageScan video-tracking software. This software can recognize and quantify several different behaviors, including LMA, grooming, rearing, immobility, and feeding behaviors. The current experiment examined behavior in a novel open-field environment rather than home-cage activity, which limited behaviors of interest to LMA, grooming, and rearing.
For HomeCageScan behavioral phenotyping, male D1 knock-in mice (8–12 weeks, 20–25 g body weight) were placed into the observation chambers for a 60-minute habituation session. […] All behavioral activity was monitored and scored by the HomeCageScan system.

[18] = Free (unbound) brain concentrations of DETQ in hD1 mice; assay type: in vivo, mouse
Description: Immediately after the LMA measurements described in Fig. 8, the brains were removed, and brain homogenate concentrations were determined by liquid chromatography with tandem mass spectrometry. The unbound fraction in brain was determined by equilibrium dialysis in a mouse brain homogenate mixture after incubation of the compound for 4.5 hours ([Kalvass et al., 2007]).
The unbound brain concentrations were calculated from the following equation: […]

[19] = target: T1, human D1 receptor; experiment: D1 receptor internalization (PathHunter, DiscoveRx)
[20] = with EC20 dopamine, 0% = EC20 dopamine response, 100% = maximum dopamine response

5HT2B receptor, sequence (P41595 whole entry): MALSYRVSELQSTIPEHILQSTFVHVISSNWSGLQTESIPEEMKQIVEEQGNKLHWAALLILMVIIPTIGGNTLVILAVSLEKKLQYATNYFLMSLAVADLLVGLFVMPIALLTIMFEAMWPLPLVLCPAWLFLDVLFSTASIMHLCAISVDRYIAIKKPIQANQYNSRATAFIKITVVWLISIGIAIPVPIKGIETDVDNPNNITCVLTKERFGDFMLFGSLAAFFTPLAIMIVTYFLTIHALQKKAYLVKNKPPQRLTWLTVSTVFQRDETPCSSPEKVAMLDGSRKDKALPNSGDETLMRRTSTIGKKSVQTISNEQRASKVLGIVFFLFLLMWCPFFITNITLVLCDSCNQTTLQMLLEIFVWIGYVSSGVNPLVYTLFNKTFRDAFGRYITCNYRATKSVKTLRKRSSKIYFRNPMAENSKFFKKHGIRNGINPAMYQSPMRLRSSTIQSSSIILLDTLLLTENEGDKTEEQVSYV
T1 sequence (P21728 whole entry): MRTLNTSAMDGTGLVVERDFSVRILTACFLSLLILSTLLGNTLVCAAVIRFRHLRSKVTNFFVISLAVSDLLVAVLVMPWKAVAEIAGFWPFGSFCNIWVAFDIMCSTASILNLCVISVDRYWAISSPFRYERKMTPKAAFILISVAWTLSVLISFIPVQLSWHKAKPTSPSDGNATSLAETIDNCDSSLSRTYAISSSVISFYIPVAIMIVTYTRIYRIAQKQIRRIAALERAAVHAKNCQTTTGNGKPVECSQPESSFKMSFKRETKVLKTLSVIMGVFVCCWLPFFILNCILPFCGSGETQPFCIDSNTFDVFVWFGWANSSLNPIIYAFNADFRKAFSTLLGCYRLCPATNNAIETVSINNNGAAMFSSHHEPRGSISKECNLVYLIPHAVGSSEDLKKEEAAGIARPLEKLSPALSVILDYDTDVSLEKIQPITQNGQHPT
T4 sequence (Q61616 whole entry): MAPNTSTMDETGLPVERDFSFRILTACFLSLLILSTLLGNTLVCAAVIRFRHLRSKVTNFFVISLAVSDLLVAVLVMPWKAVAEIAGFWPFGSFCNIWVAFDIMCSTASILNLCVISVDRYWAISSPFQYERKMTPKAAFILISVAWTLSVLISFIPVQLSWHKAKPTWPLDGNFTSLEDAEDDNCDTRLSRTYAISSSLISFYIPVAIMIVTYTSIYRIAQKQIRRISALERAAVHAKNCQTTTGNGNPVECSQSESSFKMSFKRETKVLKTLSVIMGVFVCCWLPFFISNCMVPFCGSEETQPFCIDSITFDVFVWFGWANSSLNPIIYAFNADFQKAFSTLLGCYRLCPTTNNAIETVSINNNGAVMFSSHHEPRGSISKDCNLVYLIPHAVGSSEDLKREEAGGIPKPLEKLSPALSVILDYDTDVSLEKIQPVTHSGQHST
T2 sequence (P18901 whole entry): as the sequence (Q61616 whole entry) above, with T11A, V15A, F91L, S93P, A181T, T245A, S254A, M370V, R403K, P410A counted along it
T5 sequence (P21918 whole entry): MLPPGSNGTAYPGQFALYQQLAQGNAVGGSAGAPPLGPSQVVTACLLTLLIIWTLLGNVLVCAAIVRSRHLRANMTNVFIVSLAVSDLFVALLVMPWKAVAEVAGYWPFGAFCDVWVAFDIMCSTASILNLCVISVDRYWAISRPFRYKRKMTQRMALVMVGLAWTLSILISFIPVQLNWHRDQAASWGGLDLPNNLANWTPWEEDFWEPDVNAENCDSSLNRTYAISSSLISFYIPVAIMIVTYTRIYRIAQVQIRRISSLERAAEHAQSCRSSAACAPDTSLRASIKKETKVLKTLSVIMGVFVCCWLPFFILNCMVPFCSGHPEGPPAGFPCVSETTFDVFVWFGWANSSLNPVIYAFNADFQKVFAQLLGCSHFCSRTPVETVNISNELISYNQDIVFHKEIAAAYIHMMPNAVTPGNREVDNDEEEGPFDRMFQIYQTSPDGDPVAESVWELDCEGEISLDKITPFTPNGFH
dog D1 receptor, sequence (A0A8I3RQT9 1-446): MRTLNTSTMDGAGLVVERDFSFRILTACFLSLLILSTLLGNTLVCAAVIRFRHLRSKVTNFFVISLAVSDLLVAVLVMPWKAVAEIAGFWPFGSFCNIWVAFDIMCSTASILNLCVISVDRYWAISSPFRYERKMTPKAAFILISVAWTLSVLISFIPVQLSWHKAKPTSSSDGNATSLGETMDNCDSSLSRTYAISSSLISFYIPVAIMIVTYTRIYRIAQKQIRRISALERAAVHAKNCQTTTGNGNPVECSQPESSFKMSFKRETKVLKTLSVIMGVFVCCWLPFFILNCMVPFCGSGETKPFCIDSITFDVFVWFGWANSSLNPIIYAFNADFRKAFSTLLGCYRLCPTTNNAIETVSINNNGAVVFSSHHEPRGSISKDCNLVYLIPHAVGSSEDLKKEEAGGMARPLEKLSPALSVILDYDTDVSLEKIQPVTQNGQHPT
T3 sequence (O77680 whole entry): as the sequence (P21728 whole entry) above, with N311I counted along it
D2 receptor, sequence (P14416 whole entry): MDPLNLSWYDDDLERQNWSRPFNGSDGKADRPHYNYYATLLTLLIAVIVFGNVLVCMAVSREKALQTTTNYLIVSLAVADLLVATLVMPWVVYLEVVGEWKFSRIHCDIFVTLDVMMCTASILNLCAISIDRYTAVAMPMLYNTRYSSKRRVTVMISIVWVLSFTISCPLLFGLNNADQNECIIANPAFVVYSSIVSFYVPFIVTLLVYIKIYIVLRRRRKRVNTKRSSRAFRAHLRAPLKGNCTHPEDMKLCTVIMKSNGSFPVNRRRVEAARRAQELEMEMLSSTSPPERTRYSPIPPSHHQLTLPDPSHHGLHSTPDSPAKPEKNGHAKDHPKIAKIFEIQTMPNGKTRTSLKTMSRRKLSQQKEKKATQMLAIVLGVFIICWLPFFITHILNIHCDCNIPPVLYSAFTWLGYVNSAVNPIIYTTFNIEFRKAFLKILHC
5HT6 receptor, sequence (P50406 whole entry): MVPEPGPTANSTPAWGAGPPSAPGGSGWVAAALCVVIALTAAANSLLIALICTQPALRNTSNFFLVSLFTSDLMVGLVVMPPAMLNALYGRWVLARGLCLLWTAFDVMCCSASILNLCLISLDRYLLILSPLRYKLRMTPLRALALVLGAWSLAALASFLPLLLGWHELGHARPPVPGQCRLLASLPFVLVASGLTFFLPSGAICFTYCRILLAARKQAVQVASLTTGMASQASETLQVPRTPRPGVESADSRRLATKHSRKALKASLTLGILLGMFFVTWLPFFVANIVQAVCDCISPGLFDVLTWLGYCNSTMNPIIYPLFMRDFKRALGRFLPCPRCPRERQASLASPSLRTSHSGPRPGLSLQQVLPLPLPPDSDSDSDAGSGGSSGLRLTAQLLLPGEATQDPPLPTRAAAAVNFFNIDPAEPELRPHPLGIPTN
β3 receptor, sequence (P13945 whole entry): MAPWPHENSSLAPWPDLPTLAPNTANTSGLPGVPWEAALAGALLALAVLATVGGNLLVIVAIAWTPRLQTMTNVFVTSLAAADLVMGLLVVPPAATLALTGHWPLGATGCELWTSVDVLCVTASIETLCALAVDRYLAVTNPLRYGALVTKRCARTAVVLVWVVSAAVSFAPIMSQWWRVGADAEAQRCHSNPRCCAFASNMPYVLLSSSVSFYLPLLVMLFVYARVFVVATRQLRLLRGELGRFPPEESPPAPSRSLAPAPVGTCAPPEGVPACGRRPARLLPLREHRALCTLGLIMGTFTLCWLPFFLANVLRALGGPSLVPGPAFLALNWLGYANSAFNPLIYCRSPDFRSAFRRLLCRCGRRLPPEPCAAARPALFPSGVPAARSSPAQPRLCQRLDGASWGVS
β1 receptor, sequence (P08588 whole entry): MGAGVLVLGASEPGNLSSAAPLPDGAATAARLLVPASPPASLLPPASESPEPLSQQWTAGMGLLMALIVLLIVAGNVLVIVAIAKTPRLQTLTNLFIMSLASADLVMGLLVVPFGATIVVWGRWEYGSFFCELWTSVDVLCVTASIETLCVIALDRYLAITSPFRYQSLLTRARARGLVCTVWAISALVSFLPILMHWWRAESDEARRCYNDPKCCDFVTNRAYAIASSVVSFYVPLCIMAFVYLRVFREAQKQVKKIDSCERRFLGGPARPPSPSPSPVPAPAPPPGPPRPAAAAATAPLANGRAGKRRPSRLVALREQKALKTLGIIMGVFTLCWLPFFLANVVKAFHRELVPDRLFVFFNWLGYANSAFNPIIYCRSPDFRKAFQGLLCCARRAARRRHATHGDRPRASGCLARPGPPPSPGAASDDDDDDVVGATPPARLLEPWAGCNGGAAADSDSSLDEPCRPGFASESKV
β2 receptor, sequence (P07550 whole entry): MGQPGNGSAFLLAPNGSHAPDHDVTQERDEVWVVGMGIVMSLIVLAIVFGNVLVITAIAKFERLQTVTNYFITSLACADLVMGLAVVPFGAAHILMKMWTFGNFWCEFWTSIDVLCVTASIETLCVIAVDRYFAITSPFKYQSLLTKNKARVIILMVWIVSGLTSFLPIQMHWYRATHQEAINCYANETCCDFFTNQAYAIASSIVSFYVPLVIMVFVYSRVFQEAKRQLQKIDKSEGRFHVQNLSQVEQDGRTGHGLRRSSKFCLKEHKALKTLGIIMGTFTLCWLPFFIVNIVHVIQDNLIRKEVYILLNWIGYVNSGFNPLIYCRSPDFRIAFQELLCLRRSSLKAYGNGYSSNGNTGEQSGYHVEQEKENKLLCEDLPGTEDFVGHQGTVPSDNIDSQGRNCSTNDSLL

Question: What does the source list for `C[C@H]1c2cccc(C(C)(C)O)c2C[C@H](CO)N1C(=O)Cc1c(Cl)cccc1Cl` [DETQ, 2-(2,6-dichlorophenyl)-1-((1S,3R)-3-(hydroxymethyl)-5-(2-hydroxypropan-2-yl)-1-methyl-3,4-dihydroisoquinolin-2(1H)-yl)ethan-1-one]?
Answer: Relative potency (potentiator mode RA divided by agonist mode RA) [1]: 43 fold and 42.8 fold; Maximum overall sensitization to dopamine (α times β) ([1]; 20.8 × 1.22): 25.4 fold; Emax ([1]; HEK293, human D1, comparison with rat D1, read-out: Maximum response relative to that of dopamine): 98.6%; Rightward shift of EC50 in the absence of dopamine ([1]; agonist vs potentiator mode): 6 fold; α-factor (maximum leftward shift of the cAMP response to dopamine) ([1]; allosteric Schild plot): 21 fold and 20.8 fold and 20.8 ± 1.9 fold; Kb ([1]; dopamine curve-shift, cAMP, read-out: KB (allosteric Schild plot)): 26 nM; EC50 ([1]; in the presence of an EC20 concentration of dopamine (12 nM), read-out: EC50, cAMP, potentiator mode): 5.8 nM and 5.83 nM; Top, cAMP, potentiator mode ([1]; with 12 nM dopamine, % of window between EC20 dopamine and maximum dopamine response): 95.2%; RA, cAMP agonist mode ([1]; without dopamine): 0.38; Top, cAMP, agonist mode ([1]; without dopamine, % of maximum response to dopamine): 11.6%; EC50 ([1]; without dopamine, read-out: EC50, cAMP, agonist mode): 30.4 nM; Loss of functional affinity/potency at rat D1 versus human D1 [2]: ~30 fold and 28 fold; Emax ([2]; HEK293, rat D1, read-out: Maximum response relative to that of dopamine): 39.9%; EC50 ([2]; rat D1, 5 nM dopamine (EC20), n = 4, read-out: EC50, cAMP potentiation): 162 ± 18 nM; Top (%) [3]: 75.6%; EC50 ([3]; 0.7 nM dopamine): 11.4 nM; Top (%) [4]: 85.2%; EC50 ([4]; 0.7 nM dopamine): 8.6 nM; Top (%) [5]: 80.0%; EC50 ([5]; 0.7 nM dopamine): 12 nM; Loss of potency/affinity at mouse D1 versus human D1 [6]: ~30 fold; Top (%) ([6]; Mouse D1, transient): 50.0%; EC50 ([6]; Mouse D1, transient, 0.7 nM dopamine): 312 nM; Selectivity for the D1 receptor over D5 [7]: > 1000 fold; Activity at human D5 receptor ([7]; potentiator mode, up to 25 µM): inactive; Activity at D2 receptor [8]: inactive; Activity at β1 receptor [9]: inactive; Activity at β2 receptor [10]: inactive; Activity at β3 receptor [11]: inactive; Activity at 5HT6 receptor [12]: inactive; Stimulation at 5HT2B receptor, potentiator mode ([13]; 1 µM): 5%; inhibition at 1 µM ([13]; 1 µM, read-out: Inhibition at 5HT2B receptor, antagonist mode): 13%; Stimulation at 5HT2B receptor, potentiator mode ([13]; 10 µM): 48%; inhibition at 10 µM ([13]; 10 µM, read-out: Inhibition at 5HT2B receptor, antagonist mode): 56%; Activity at 10 additional targets of the Lilly selectivity panel [14]: inactive; Effect on affinity of dopamine to inhibit SCH23390 binding [15]: increased the affinity of dopamine; LMA activity in wild-type mice ([16]; 3–20 mg/kg orally): inactive in wild-type mice; Increase in LMA ([16]; wild-type C57Bl/6 mice, 30 mg/kg oral, P = 0.07, not significant): 32%; Grooming (index of stereotyped behavior) [17]: only modest changes that did not reach statistical significance; Horizontal locomotion and rearing [17]: this increase was maintained up to the highest dose tested; Free brain levels after oral dosing ([18]; 240 mg/kg oral, immediately after LMA testing): ~600 nM; concentration at 6 h ([18]; hD1 knock-in, mouse, brain (unbound), 240 mg/kg oral twice daily, at 6 hours, n = 3, read-out: Unbound brain levels): 19.8 ± 1.5 nM; concentration at 12 h ([18]; hD1 knock-in, mouse, brain (unbound), 240 mg/kg oral twice daily, at 12 hours, n = 3, read-out: Unbound brain levels): 30.8 ± 9.4 nM; Pathway Preference cAMP/Internalization ([19]; RA for cAMP divided by RA for internalization): 13.1; Relative Preference DETQ/A-77636 ([19]; pathway preference of DETQ divided by that of A-77636): 2.0 ± 1.4 and 1.97; RA, Internalization ([19]; top divided by EC50, with 407 nM dopamine): 1.25; Bottom, D1 receptor internalization [19, 20]: 5.0%; Top, D1 receptor internalization [19, 20]: 55.8%
